Each structure is given as a SMILES string.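 48-hour exposure; five concentrations; linearly interpolated endpoints. GI50 = concentration required for 50% inhibition of growth. TGI is the concentration that stops growth completely.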 Bounds are passed on as bounds.

Assay in all cases: inhibition of tumour cell growth, NCI panel, 48 h
Assay [1] has as its system MOLT-4 leukemia.
Assay [2] deals with SNB-75 CNS.
For assay [3], the system named is ACHN renal.
The subject of assay [4] is LOX IMVI melanoma.
The test system of assay [5] is SNB-19 CNS.
Assay [6] concerns UACC-257 melanoma.
Assay [7] has as its system HT29 colon.
For assay [8], the system named is PC-3 prostate.
For assay [9], the system named is NCI/ADR-RES ovarian.

Turning to `COC(=O)C1=C(O)C(O)=C(C(=O)OC)C1`, the TGI in assay [1], in [2], in assay [3], in [4], in [5] and in [6] was above 100 µM each time. The TGI in [7] was above 100 µM.

As for `COc1ccc2ccc([Se]c3ccc4ccc(OC)cc4c3)cc2c1`, the TGI in [1] was above 100 µM; in [2], 76.8 µM; in assay [3], above 100 µM; in assay [4] it was above 100 µM; in [5] it was 68.8 µM; in assay [6] it was above 100 µM. The TGI in assay [7] was above 100 µM.

Consider `COc1ccc(/C=C2/C[N+](C)(C)C/C(=C/c3ccc(OC)cc3)C2=O)cc1`, for which the TGI is 57.1 µM in [1]; above 100 µM in [2]; above 100 µM in assay [3]; above 100 µM in assay [4]; above 100 µM in [5]; above 100 µM in assay [6]. Moreover, the TGI in assay [7] is above 100 µM.

Consider `Cc1cc(C)nc(Nc2nc3ccc([N+](=O)[O-])cc3[nH]2)n1`, for which the TGI in [1], in assay [3], in assay [4], in assay [5], in assay [6] and in [7] was above 100 µM in each case.

In the case of `O=C(Oc1ccc(CCl)cc1)c1ccccc1`, the GI50 was 0.188 µM in assay [1]; 0.172 µM in assay [2]; 0.119 µM in [3]; 0.158 µM in [4]; 0.15 µM in [8]; 0.187 µM in assay [5]. For the same compound, the GI50 in assay [6] was 0.196 µM; in assay [9], 0.2 µM; in assay [7], 0.149 µM. The TGI came out at 0.538 µM in assay [1]; 0.356 µM in assay [2]; 0.246 µM in [3]; 0.305 µM in [4]; 0.332 µM in assay [8]; 0.495 µM in assay [5]. Further, the TGI in [6] was 0.503 µM; in assay [9], 0.472 µM; in [7], 0.289 µM.

For the compound `CCOC(=O)c1ccc(N2C(=O)/C(=C\OC)c3ccccc3C2=O)cc1`, the TGI in assay [1] was 89.3 µM; in [2], above 100 µM; in assay [3], above 100 µM; in [5], above 100 µM; in assay [6], above 100 µM; in assay [7], above 100 µM.

Regarding `C=C1CC[C@@H]2C(C)(C)CCC[C@@]2(C)[C@@H]1Cc1cc(O)ccc1O`, the TGI in [1] worked out at 9.07 µM; in [2], 7.14 µM; in assay [3], 11.8 µM; in assay [4], 5.35 µM; in assay [5] it was 21.9 µM; in assay [6], 5.78 µM. This compound also yielded a TGI in [7] of 32.6 µM.

On to `CCOC(=O)CC1=CSC2=NCCN12`, for which the TGI in [2], in assay [3], in assay [4], in [5], in [6] and in [7] was above 100 µM each time.

With `CC(=O)Nc1ccc(C2[C@H]3C(=O)N(c4ccc(Cc5ccc(N6C(=O)[C@@H]7ON(c8ccccc8)C(c8ccc(NC(C)=O)cc8)[C@@H]7C6=O)cc5)cc4)C(=O)[C@H]3ON2c2ccccc2)cc1` (stereo partly specified), the TGI in [1], in assay [2], in [3], in assay [4], in assay [5] and in [6] was above 100 µM each time. This compound also showed a TGI in assay [7] above 100 µM.

With `c1ccc(N=C2c3ccccc3C3=NCCCN32)cc1`, the TGI in assay [1], in [2], in assay [3], in assay [4], in assay [5] and in [6] was above 100 µM throughout. Further, the TGI in assay [7] was above 100 µM.

In the case of `COC(=O)c1ccc(N=NN(C)CO)cc1`, the TGI in assay [1], in [2], in [3], in assay [4], in [5] and in [6] was above 100 µM in each case. For the same compound, the TGI in assay [7] is above 100 µM.

For `O=C([CH-]C(=O)c1ccccc1)c1ccccc1.O=C([CH-]C(=O)c1ccccc1)c1ccccc1.[Nd+3].[OH-].[OH3+]`, the GI50 in assay [1] is 3.88 µM; in [2] it was 2.49 µM; in assay [3] it was 10.1 µM; in [5], 8.19 µM; in assay [6], 15.2 µM; in [7], 8.8 µM. Also, the TGI in [1] turned out to be 33.1 µM; in assay [2] it was 7.25 µM; in [3], 30.1 µM; in [5] it was 44.9 µM; in assay [6] it was 41.9 µM; in assay [7], 26.2 µM.

Take `CC(c1cccc2ccccc12)/[N+]([O-])=C/c1ccccc1` (stereo unspecified): the TGI in assay [1], in [2], in assay [3], in assay [4], in assay [5] and in assay [6] was above 100 µM in each case. The same compound came in with a TGI in assay [7] above 100 µM.

On to `CS(=O)c1ccc(COP(N)(=O)N(CCCl)CCCl)cc1` (stereo unspecified), for which the TGI in assay [1], in [2], in [3], in assay [4], in assay [5] and in assay [6] was above 100 µM throughout. For the same compound, in assay [7], the TGI is above 100 µM.

Turning to `Cc1c2cc[nH]c(=O)c2cc2c(=O)c3cnccc3[nH]c12`, the TGI in assay [1], in assay [2], in assay [3], in [4], in assay [5] and in assay [6] was above 100 µM throughout. For the same compound, the TGI in [7] is above 100 µM.

Take `O=C(O)c1cc2c(cn1)[nH]c1ccccc12`: the TGI in assay [1], in [2], in assay [3], in [4], in [5] and in assay [6] was above 100 µM throughout. Also, the TGI in [7] is above 100 µM.

For `ON=C1CCC(c2ccccc2)CC1` (stereo unspecified), the TGI in assay [2], in [3], in assay [4], in assay [5], in [6] and in assay [7] was above 100 µM each time.

As for `O=c1cc2ccccc2nn1-c1ccccc1Cl`, the TGI in [2], in assay [3], in assay [4], in [5], in assay [6] and in [7] was above 100 µM each time.

On to `CCOC(=O)C(C)c1cc(C2(C)OCCO2)c(C)o1` (stereo unspecified), for which the TGI in assay [1], in assay [2], in assay [3], in [4] and in assay [5] was above 100 µM throughout.

With `O=C(c1ccccc1)c1c(C(=O)c2ccccc2)c(-c2ccccc2)c2c(-c3ccccc3)sc(-c3ccccc3)c2c1-c1ccccc1`, the TGI in [2], in [3], in assay [4], in assay [5], in assay [6] and in assay [7] was above 100 µM throughout.

Regarding `COC(=O)N/N=C/c1oc(-c2cccc([N+](=O)[O-])c2)c(-c2cccc([N+](=O)[O-])c2)c1[N+](=O)[O-]`, the TGI in assay [1] was 89.9 µM; in [3] it was above 100 µM; in assay [4], above 100 µM; in [5] it was above 100 µM; in [6] it was above 100 µM; in assay [7], above 100 µM.

As for `O=[N+]([O-])C1C2C=CC(C2)[C@H]1c1ccccc1Cl` (stereo partly specified), the TGI in assay [1] was above 100 µM; in [2], 60.7 µM; in assay [3], above 100 µM; in assay [4] it was above 100 µM; in assay [5], above 100 µM; in assay [6], above 100 µM. The compound further had a TGI in [7] above 100 µM.

For `N#CC12C3C4CC5C6C4C1C6C(O)(C53)N2Cc1ccccc1` (stereo unspecified), the TGI in assay [1], in assay [2], in assay [3], in assay [4], in assay [5] and in [6] was above 100 µM each time. For the same compound, in assay [7], the TGI is above 100 µM.

Consider `N.N.NC(CS)C(=O)[O-].NC(CS)C(=O)[O-].[Pt+4]` (stereo unspecified), for which the GI50 in assay [1], in [2], in assay [3], in assay [4], in assay [5] and in assay [6] was above 50 µM throughout. Further, the GI50 in [7] was above 50 µM. Further, the TGI in assay [1], in assay [2], in assay [3], in assay [4], in assay [5] and in assay [6] was above 50 µM throughout. For the same compound, the TGI in assay [7] is above 50 µM.

In the case of `CN(C)CCCNC(=O)c1cc(NC(=O)c2cc(NC(=O)c3cc(NC(=O)CCc4c[nH]c5ccccc45)cn3C)cn2C)cn1C`, the GI50 in assay [1], in [2], in assay [3], in assay [4], in assay [8] and in assay [5] was above 100 µM each time. The GI50 is above 100 µM in [6], above 100 µM in assay [9] and 30.7 µM in assay [7]. In addition, the TGI in [1], in [2], in [3], in [4], in assay [8] and in assay [5] was above 100 µM each time. Also, the TGI in assay [6], in assay [9] and in [7] was above 100 µM in each case.

Turning to `CC(=O)/C=C/c1ccc(C2CC(C)=Nc3c(ccc4c3C(=O)c3ccccc3C4=O)N2)cc1` (stereo unspecified), the TGI in [1], in [2], in assay [3], in assay [4], in assay [5] and in [7] was above 100 µM throughout.

Regarding `O=S1(=O)C[C@@H](O)[C@H](O)CS1`, the TGI in assay [1], in [2], in [3], in [4], in assay [5] and in [6] was above 100 µM throughout. The TGI in assay [7] was above 100 µM.

For `Nc1c(-c2nc3ccccc3[nH]2)sc(=S)n1-c1ccccc1`, the TGI in assay [1] is 45.8 µM; in assay [2], above 100 µM; in assay [3] it was above 100 µM; in assay [5] it was above 100 µM; in [6], above 100 µM; in [7] it was above 100 µM.

With `CCOC(=O)C1C(=O)c2ccccc2CN1Cc1ccccc1` (stereo unspecified), the TGI in assay [1], in assay [2], in [3], in [4], in assay [5] and in [6] was above 100 µM throughout. The TGI in assay [7] was above 100 µM.

As for `CC(=O)OCC1OC(n2c(=O)n(-c3ccccc3)c(=O)c3ccccc32)C(OC(C)=O)C(OC(C)=O)C1OC(C)=O` (stereo unspecified), the TGI in assay [1], in assay [2], in [3], in [4], in assay [5] and in assay [6] was above 100 µM each time. The compound also had a TGI in [7] above 100 µM.

Take `CCOP(=O)(OCC)/C(C#N)=C/c1ccco1`: the TGI in [1], in assay [2], in assay [3], in assay [4], in [6] and in assay [7] was above 100 µM each time.

On to `COC(=O)c1c(CC#N)cccc1CC#N`, for which the TGI in [1], in [2], in assay [3], in assay [4], in assay [5] and in assay [6] was above 100 µM each time. The compound further came in with a TGI in assay [7] above 100 µM.

Values taken from PubChem BioAssay (NCI).
